From ChEMBL document CHEMBL1131095, “Derivation of a three-dimensional pharmacophore model of substance P antagonists bound to the neurokinin-1 receptor” (J Med Chem, 1998)

biological target: T1, Substance-P receptor (Homo sapiens, UniProt P25103); experiment: Binding affinity was measured against the Tachykinin receptor 1 in CHO-expressed hNK1 using [125I]SP.
T1 sequence (P25103 whole entry): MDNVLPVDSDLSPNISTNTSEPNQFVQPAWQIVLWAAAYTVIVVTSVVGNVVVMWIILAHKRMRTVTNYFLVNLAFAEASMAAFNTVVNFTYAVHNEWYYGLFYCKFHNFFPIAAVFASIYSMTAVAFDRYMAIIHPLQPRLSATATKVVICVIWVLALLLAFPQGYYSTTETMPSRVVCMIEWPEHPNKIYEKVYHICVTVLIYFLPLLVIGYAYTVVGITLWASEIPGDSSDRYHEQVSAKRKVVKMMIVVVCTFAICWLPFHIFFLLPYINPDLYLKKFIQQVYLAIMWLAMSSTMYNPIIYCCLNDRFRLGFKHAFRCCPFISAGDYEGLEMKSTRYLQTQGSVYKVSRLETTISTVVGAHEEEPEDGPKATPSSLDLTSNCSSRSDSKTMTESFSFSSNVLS

In order of falling IC50:
1. O=C1O[C@@H](Cc2c[nH]c3ccccc23)C(=O)N1Cc1cccc(C(F)(F)F)c1  2690 nM
2. N[C@H](COCc1ccccc1)C(c1ccccc1)c1ccccc1  363 nM
3. Cc1cc(C)cc(CO[C@H]2C3CCN(CC3)[C@H]2C(c2ccccc2)c2ccccc2)c1 [L-706125]  295 nM
4. COc1ccccc1CN[C@H]1C2CCN(CC2)[C@H]1Cc1ccccc1  234 nM
5. FC(F)(F)c1cc(CO[C@H]2C3CCN(CC3)[C@H]2C(c2ccccc2)c2ccccc2)cc(C(F)(F)F)c1 [L-709210]  195 nM
6. Cc1cc(C)cc(COC[C@@H](Nc2ccccc2)C(c2ccccc2)c2ccccc2)c1  81.3 nM
7. N[C@H](COCc1cccc(Cl)c1)C(c1ccccc1)c1ccccc1  75.9 nM
8. c1ccc(CO[C@H]2C3CCN(CC3)[C@H]2C(c2ccccc2)c2ccccc2)cc1  75.9 nM
9. CC(=O)N[C@@H](Cc1c[nH]c2ccccc12)C(=O)OCc1cc(C)cc(C)c1 [L-708568]  52.5 nM
10. FC(F)(F)c1cc(CO[C@H]2CCCN(Cc3ccco3)[C@H]2c2ccccc2)cc(C(F)(F)F)c1  39.8 nM
11. FC(F)(F)c1cc(CO[C@H]2CCCN(Cc3nnn[nH]3)[C@H]2c2ccccc2)cc(C(F)(F)F)c1  39.8 nM
12. c1ccc(CN[C@H]2C3CCN(CC3)[C@H]2C(c2ccccc2)c2ccccc2)cc1  28.8 nM
13. O=C1O[C@@H](Cc2c[nH]c3ccccc23)C(=O)N1Cc1cc(C(F)(F)F)cc(C(F)(F)F)c1  25.7 nM
14. FC(F)(F)c1cc(COCC2(c3ccccc3)CCCNC2)cc(C(F)(F)F)c1 (centres undefined)  20 nM
15. CC(=O)N[C@@H](Cc1csc2ccccc12)C(=O)OCc1cc(C(F)(F)F)cc(C(F)(F)F)c1 [L-709400]  15.1 nM
16. FC(F)(F)c1cc(CN[C@H]2C3CCN(CC3)[C@H]2C(c2ccccc2)c2ccccc2)cc(C(F)(F)F)c1  2 nM
17. FC(F)(F)c1cc(CO[C@H]2CCCN(Cc3cnc[nH]3)[C@H]2c2ccccc2)cc(C(F)(F)F)c1  1 nM
18. FC(F)(F)c1cc(COCC2(c3ccccc3)CCCCN2)cc(C(F)(F)F)c1 (centres undefined)  1 nM
19. FC(F)(F)c1cc(CO[C@H]2CCCN(Cc3nnco3)[C@H]2c2ccccc2)cc(C(F)(F)F)c1  1 nM
20. FC(F)(F)c1cc(CO[C@H]2CCCN(Cc3ncc[nH]3)[C@H]2c2ccccc2)cc(C(F)(F)F)c1  0.501 nM
21. CN(Cc1ccccc1)C(=O)CN1CCC[C@H](OCc2cc(C(F)(F)F)cc(C(F)(F)F)c2)[C@@H]1c1ccccc1  0.398 nM
22. FC(F)(F)c1cc(CO[C@H]2CCCN(Cc3nnc[nH]3)[C@H]2c2ccccc2)cc(C(F)(F)F)c1  0.2 nM
23. O=c1[nH]nc(CN2CCC[C@H](OCc3cc(C(F)(F)F)cc(C(F)(F)F)c3)[C@@H]2c2ccccc2)[nH]1  0.1 nM

biological target: T1, Substance-P receptor; experiment: Binding affinity was measured against the Tachykinin receptor 1 in human IM-9 cells using [3H]SP as ligand.; type: cell-based

In order of rising IC50:
1. CN(Cc1ccccc1)C(=O)[C@H](Cc1ccc2ccccc2c1)NC(=O)C1(NC(=O)c2c[nH]c3ccccc23)CCCCC1  1.26 nM
2. COc1ccccc1CN[C@H]1[C@@H]2CCC[C@@H]2N[C@H]1c1ccccc1  2.4 nM
3. CN(Cc1ccccc1)C(=O)[C@H](Cc1ccc2ccccc2c1)NC(=O)[C@@H]1CCCC[C@@H]1NC(=O)c1c[nH]c2ccccc12  12.6 nM
4. CN(C(=O)Cc1ccccc1)[C@H](Cc1ccc2ccccc2c1)NC(=O)C1(NC(=O)c2c[nH]c3ccccc23)CCCCC1  20 nM
5. CN(Cc1ccccc1)C(=O)[C@H](Cc1ccccc1)NC(=O)[C@@H]1CCCC[C@@H]1NC(=O)c1c[nH]c2ccccc12  126 nM
6. O=C(Cc1ccccc1)N[C@H](Cc1ccc2ccccc2c1)NC(=O)[C@@H]1CCCC[C@@H]1NC(=O)c1c[nH]c2ccccc12  316 nM
7. CN(Cc1ccccc1)C[C@H](Cc1ccc2ccccc2c1)NC(=O)[C@@H]1CCCC[C@@H]1NC(=O)c1c[nH]c2ccccc12  1260 nM

biological target: T1, Substance-P receptor; experiment: Binding affinity was measured against the Tachykinin receptor 1 in human IM-9 cells using [125I]Bolton-Hunter SP.; type: cell-based

In order of falling IC50:
1. COc1ccccc1[C@@H]1CC[C@@]2(CCCN[C@H]2c2ccccc2)N1  10000 nM
2. c1ccc(CN[C@H]2C3C4CCCC3CN(C4)[C@H]2C(c2ccccc2)c2ccccc2)cc1  229 nM
3. c1ccc(CN[C@H]2C3CC4CCCC(C3)N4[C@H]2C(c2ccccc2)c2ccccc2)cc1  170 nM
4. c1ccc(CN[C@H]2C3CC4CCC(C3)N4[C@H]2C(c2ccccc2)c2ccccc2)cc1  67.6 nM
5. COc1ccccc1[C@@H]1CC[C@@]2(CCCN[C@H]2c2ccccc2)NC1  2 nM
6. COc1ccccc1CN[C@H]1C2CC3CCCC2CN3[C@H]1C(c1ccccc1)c1ccccc1 (some centres undefined)  1.91 nM
7. COc1ccccc1CN[C@H]1C2CC3CCC(C2)N3[C@H]1C(c1ccccc1)c1ccccc1  0.912 nM
8. COc1ccccc1CN1CN2CCC[C@H]1[C@@H]2c1ccccc1  0.617 nM
9. COc1ccccc1CN1CCN2CCC[C@H]1[C@@H]2c1ccccc1  0.363 nM
